Each structure is given as a SMILES string.

Consider 19 compounds from patent US11976083B2, “Inhibitors of peptidylarginine deiminases” (Gilead Sciences, Inc., priority 2020, dated 2024).

The target in the assay is T1, human PAD4 (Homo sapiens, UniProt Q9UM07).
T1 construct: human PAD4 (NM_012387), A2-P663, was PCR amplified; His-SUMO (N, cleaved yes); made in house; host or cells: E. coli BL21(DE3)
T1 sequence (Q9UM07 2-663): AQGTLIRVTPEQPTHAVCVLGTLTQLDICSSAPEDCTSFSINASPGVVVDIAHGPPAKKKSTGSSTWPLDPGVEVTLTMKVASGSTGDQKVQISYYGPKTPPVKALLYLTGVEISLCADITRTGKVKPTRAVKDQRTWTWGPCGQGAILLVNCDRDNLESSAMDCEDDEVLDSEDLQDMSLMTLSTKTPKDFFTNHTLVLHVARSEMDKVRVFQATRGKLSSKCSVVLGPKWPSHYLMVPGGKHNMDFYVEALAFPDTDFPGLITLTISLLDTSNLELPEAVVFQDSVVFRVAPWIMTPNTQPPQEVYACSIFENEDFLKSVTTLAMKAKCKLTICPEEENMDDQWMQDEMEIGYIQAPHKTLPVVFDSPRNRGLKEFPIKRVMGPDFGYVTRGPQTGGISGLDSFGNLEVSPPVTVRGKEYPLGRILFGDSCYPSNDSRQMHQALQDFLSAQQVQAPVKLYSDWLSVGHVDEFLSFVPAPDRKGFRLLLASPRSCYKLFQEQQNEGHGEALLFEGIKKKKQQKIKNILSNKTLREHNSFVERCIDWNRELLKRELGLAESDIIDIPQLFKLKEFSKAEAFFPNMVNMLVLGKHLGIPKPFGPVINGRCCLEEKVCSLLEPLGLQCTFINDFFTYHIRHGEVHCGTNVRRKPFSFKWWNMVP
In words: In vitro PAD4 BAEE biochemical assay. As to conditions: BAEE substrate 3 mM, 5 nM PAD4, 2 mM calcium chloride; geometric mean of multiple experiments. In short, it runs like this:
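Recombinant human PAD4 (5 nM final) with 2 mM CaCl2 was preincubated with compound 30 min at 25 °C in MOPS buffer pH 7.6, then reacted with 3 mM BAEE for 2 h at 25 °C. After EDTA stop, released ammonia was detected by o-phthalaldehyde/DTT fluorescence (ex 405/em 535 nm); IC50 from four-parameter fit, geometric mean.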
Take `CO[C@@H]1CCN(C(=O)c2cc(OC(F)F)c3c(c2)nc(-c2cc4ccc5nc4n2CCCCC[C@@H]2C[C@H]2C(=O)N[C@@H]5C)n3C)C[C@@H]1N` [Example 511, (2~{R},5~{R}, 7~{R})-14-[5-[(3~{S},4~{R})-3-amino-4-methoxy-piperidine-1-carbonyl]-7-(difluoromethoxy)-1-methyl-benzimidazol-2-yl]-2-methyl-3,13,19-triazatetracyclo[11.5.2.0^ {5,7}.0^{16,20}] icosa-1(19),14,16(20), 17-tetraen-4-one]: the IC50 is 95 nM.

As for `CO[C@@H]1CCN(C(=O)c2cc(F)c3c(c2)nc(-c2cc4ccc5nc4n2CCCCC[C@@H]2CC2C(=O)N[C@@H]5C)n3C)C[C@@H]1N` (stereo partly shown) [Example 512, (2~{R},5~{R},7~ {R})-14-[5-[(3~{S},4~{R})-3-amino-4-methoxy-piperidine-1-carbonyl]-7-fluoro-1-methyl-benzimidazol-2-yl]-2-methyl-3,13,19-triazatetracyclo[11.5.2.0^ {5,7}.0^{16,20}]icosa-1(19),14,16(20),17-tetraen-4-one], the IC50 worked out at 65 nM.

With `CO[C@@H]1CCN(C(=O)c2cc(F)c3c(c2)nc(-c2cc4ccc5nc4n2CCCCCc2nccnc2C(=O)N[C@@H]5C)n3C)C[C@@H]1N` [Example 513, (2~{R})-17-[5-[(3~ {S},4~{R})-3-amino-4-methoxy-piperidine-1-carbonyl]-7-fluoro-1-methyl-benzimidazol-2-yl]-2-methyl-3,6,9,16,22-pentazatetracyclo[14.5.2.0^ {5,10}.0^{19,23}] tricosa-1(22),5(10),6,8,17,19 (23),20-heptaen-4-one], the IC50 amounted to 161 nM.

Consider `COc1cc(C(=O)N(C)[C@H]2CNCC[C@@H]2F)cc2nc(-c3cc4ccc5nc4n3CCCCCCC(C)(C)C(=O)N[C@@H]5C)n(C)c12` [Example 514, ~{N}-[(3~{S},4~{S})-4-fluoro-3-piperidyl]-7-methoxy-~{N},1-dimethyl-2-[(11~{R})-8,8,11-trimethyl-9-oxo-1,10,19-triazatricyclo[10.5.2.0^ {15,18}]nonadeca-12(19),13,15(18),16-tetraen-17-yl]benzimidazole-5-carboxamide], for which the IC50 was found to be 371 nM.

For `C[C@H]1NC(=O)C(C)(C)CCCCCn2c(-c3nc4cc(C(=O)N[C@H]5CNCC[C@@H]5F)c(F)cc4n3C3CC3)cc3ccc1nc32` [Example 515, 1-cyclopropyl-6-fluoro- ~{N}-[(3~{S},4~{S})-4-fluoro-3-piperidyl]-2-[(10~{R})-7,7,10-trimethyl-8-oxo-1,9,18-triazatricyclo [9.5.2.0^{14,17}]octadeca-11(18),12,14(17),15-tetraen-16-yl]benzimidazole-5-carboxamide], the IC50 came to 74 nM.

`COc1cc(C(=O)N[C@H]2CNCC[C@@H]2F)cc2nc(-c3cc4ccc5nc4n3CC/C=C\C[C@H]3C[C@H]3C(=O)N[C@@H]5C)n(C)c12` [Example 516, ~{N}-[(3~{S},4~ {S})-4-fluoro-3-piperidyl]-7-methoxy-1-methyl-2-[(2~{R},5~{R},7~ {S},9~{Z})-2-methyl-4-oxo-3,13,19-triazatetracyclo[11.5.2.0^ {5,7}.0^{16,20}]icosa-1(19),9,14,16(20),17-pentaen-14-yl]benzimidazole-5-carboxamide]: the IC50 turned out to be 48 nM.

In the case of `COc1cc(C(=O)N2CC[C@@H](OC)[C@@H](N)C2)cc2nc(-c3cc4ccc5nc4n3CC/C=C\C[C@H]3C[C@H]3C(=O)N[C@@H]5C)n(C)c12` [Example 517, (2~{R},5~{R},7~ {S},9~{Z})-14-[5-[(3~{S},4~{R})-3-amino-4-methoxy-piperidine-1-carbonyl]-7-methoxy-1-methyl-benzimidazol-2-yl]-2-methyl-3,13,19-triazatetracyclo[11.5.2.0^ {5,7}.0^{16,20}] icosa-1(19),9,14,16(20), 17-pentaen-4-one], the IC50 is 128 nM.

For the compound `COc1cc(C(=O)N[C@H]2CNCC[C@@H]2F)cc2nc(-c3cc4ccc5nc4n3CCCCC[C@H]3C[C@H]3C(=O)N[C@@H]5C)n(C)c12` [Example 518], the IC50 turned out to be 49 nM.

Regarding `C[C@H]1NC(=O)[C@@H]2C[C@@H]2C/C=C\CCn2c(-c3nc4cc(C(=O)N[C@H]5CNCC[C@@H]5F)c(F)cc4n3C3CC3)cc3ccc1nc32` [Example 519, 1-cyclopropyl-6-fluoro-~{N}-[(3~{S},4~{S})-4-fluoro-3-piperidyl]-2-[(2~{R}, 5~{R},7~{S},9~{Z})-2-methyl-4-oxo-3,13,19-triazatetracyclo[11.5.2.0^ {5,7}.0^{16,20}]icosa-1 (19),9,14,16(20),17-pentaen-14-yl]benzimidazole-5-carboxamide], the IC50 was 44 nM.

As for `C[C@H]1NC(=O)[C@@H]2C[C@@H]2CCCCCn2c(-c3nc4cc(C(=O)N[C@H]5CNCC[C@@H]5F)c(F)cc4n3C3CC3)cc3ccc1nc32` [Example 520, 1-cyclopropyl-6-fluoro-~ {N}-[(3~{S},4~{S})-4-fluoro-3-piperidyl]-2-[(2~{R},5~{R},7~{S})-2-methyl-4-oxo-3,13,19-triazatetracyclo[11.5.2.0^ {5,7}.0^{16,20}]icosa-1(19),14,16(20),17-tetraen-14-yl]benzimidazole-5-carboxamide], the IC50 came to 35 nM.

In the case of `C[C@H]1NC(=O)[C@@H]2C[C@@H]2C/C=C\CCn2c(-c3nc4cc(C(=O)N[C@H]5CNCC[C@@H]5F)c(F)cc4n3C)cc3ccc1nc32` [Example 521, 6-fluoro-~{N}-[(3~ {S},4~{S})-4-fluoro-3-piperidyl]-1-methyl-2-[(2~{R},5~{R},7~ {S},9~{Z})-2-methyl-4-oxo-3,13,19-triazatetracyclo[11.5.2.0^ {5,7}.0^{16,20}]icosa-1(19),9,14,16(20), 17-pentaen-14-yl] benzimidazole-5-carboxamide], the concentration for half-maximal inhibition (IC50) stood at 76 nM.

As to `C[C@H]1NC(=O)[C@@H]2C[C@@H]2CCCCCn2c(-c3nc4cc(C(=O)N[C@H]5CNCC[C@@H]5F)c(F)cc4n3C)cc3ccc1nc32` [Example 522, 6-fluoro-~{N}-[(3~ {S},4~{S})-4-fluoro-3-piperidyl]-1-methyl-2-[(2~{R},5~{R},7~{S})-2-methyl-4-oxo-3,13,19-triazatetracyclo[11.5.2.0^ {5,7).0^{16,20}]icosa-1(19),14,16(20), 17-tetraen-14-yl] benzimidazole-5-carboxamide], the IC50 stood at 40 nM.

Consider `COc1cc(C(=O)N[C@H]2CNCC[C@@H]2F)cc2nc(-c3cc4ccc5nc4n3CCCCC[C@@H]3C[C@@H]3C(=O)N[C@@H]5C)n(C)c12` [Example 523, ~{N}-[(3~{S},4~ {S})-4-fluoro-3-piperidyl]-7-methoxy-1-methyl-2-[(2~{R},5~ {S},7~{R})-2-methyl-4-oxo-3,13,19-triazatetracyclo [11.5.2.0^{5,7}.0^{16,20}]icosa-1(19),14,16(20), 17-tetraen-14-yl] benzimidazole-5-carboxamide], for which the IC50 stood at 205 nM.

Take `COc1cc(C(=O)N2CC[C@@H](OC)[C@@H](N)C2)cc2nc(-c3cc4ccc5nc4n3CCCCC[C@@H]3C[C@@H]3C(=O)N[C@@H]5C)n(C)c12` [Example 524, (2~{R},5~{S},7~{R})-14-[5-[(3~{S},4~{R})-3-amino-4-methoxy-piperidine-1-carbonyl]-7-methoxy-1-methyl-benzimidazol-2-yl]-2-methyl-3,13,19-triazatetracyclo[11.5.2.0^ {5,7}.0^{16,20}]icosa-1(19),14,16(20),17-tetraen-4-one]: the IC50 was 388 nM.

As for `COc1cc(C(=O)N2CC[C@@H](OC)[C@@H](N)C2)cc2nc(-c3cc4ccc5nc4n3CCCCC[C@H]3C[C@H]3C(=O)N[C@@H]5C)n(C)c12` [Example 525, (2~{R},5~{R},7~ {S})-14-[5-[(3~{S},4~{R})-3-amino-4-methoxy-piperidine-1-carbonyl]-7-methoxy-1-methyl-benzimidazol-2-yl]-2-methyl-3,13,19-triazatetracyclo [11.5.2.0^{5,7}.0^{16,20}] icosa-1(19),14,16(20), 17-tetraen-4-one], the IC50 is 78 nM.

As to `COc1cc(C(=O)N[C@H]2CNC[C@H](O)C2)cc2nc(-c3cc4ccc5nc4n3CCCCCCC(C)(C)C(=O)N[C@@H]5C)n(C)c12` [Example 526, ~{N}-[(3~{R},5~{R})-5-hydroxy-3-piperidyl]-7-methoxy-1-methyl-2-[(11~{R})-8,8,11-trimethyl-9-oxo-1,10,19-triazatricyclo [10.5.2.0^{15,18}]nonadeca-12(19),13,15(18),16-tetraen-17-yl]benzimidazole-5-carboxamide], the IC50 amounted to 65 nM.

For the compound `COc1cc(C(=O)N2CCC(OC3CC3)C(N)C2)cc2nc(-c3cc4ccc5nc4n3CCCCCCC(C)(C)C(=O)N[C@@H]5C)n(C)c12` (stereo partly shown) [Example 527, (11~{R})-17-[5-[3-amino-4-(cyclopropoxy)piperidine-1-carbonyl]-7-methoxy-1-methyl-benzimidazol-2-yl]-8,8,11-trimethyl-1,10,19-triazatricyclo[10.5.2.0^ {15,18}]nonadeca-12(19),13,15(18), 16-tetraen-9-one], the IC50 amounted to 215 nM.

`COc1cc(C(=O)N2CCC[C@@H](N)[C@H]2C)cc2nc(-c3cc4ccc5nc4n3CCCCCc3nccnc3C(=O)N[C@@H]5C)n(C)c12` [Example 528, (2~{R})-17-[5-[(2~ {R},3~{R})-3-amino-2-methyl-piperidine-1-carbonyl]-7-methoxy-1-methyl-benzimidazol-2-yl]-2-methyl-3,6,9,16,22-pentazatetracyclo [14.5.2.0^{5,10}.0^{19, 23}]tricosa-1(22),5(10), 6,8,17,19(23),20-heptaen-4-one]: the IC50 was determined as 55 nM.

For `COc1cc(C(=O)N[C@@H]2CNC[C@@H](O)C2)cc2nc(-c3cc4ccc5nc4n3CCCCCCC(C)(C)C(=O)N[C@@H]5C)n(C)c12` [Example 529, ~{N}-[(3~{S},5~{S})-5-hydroxy-3-piperidyl]-7-methoxy-1-methyl-2-[(11~{R})-8,8,11-trimethyl-9-oxo-1,10,19-triazatricyclo[10.5.2.0^{15,18}]nonadeca-12(19),13,15(18),16-tetraen-17-yl]benzimidazole-5-carboxamide], the IC50 amounted to 409 nM.

In general, IC50 refers to the concentration at which inhibition is half-maximal.
